Test results taken from patent EP3959993B1, “METHOD FOR SOLVENT FREE PRODUCTION OF AROMA CONCENTRATES” (Symrise AG, priority 2020, dated 2022).

What was measured:
[1] = theoretical solubility, values known in the literature; cited from earlier work
[2] = Second oil phase obtained by adding NaCl to the water phase (Example 4); type: physicochemical; details: after separating oil phases I and II
Description: Cross linked polystyrene was used as adsorbent material. The volume flux for loading the adsorbent was 300 ml/min.
The adsorbent was heated to 150 °C, the temperature of the applied water steam was 160 °C.
The water steam flux was 10 g/min and was applied for 100 min.
The oil and water phases were separated.
A second oil phase was separated and was collected.

[3] = Influence of the amount of NaCl on the distribution between oil phase and water phase (Example 5); type: physicochemical

[Cl-].[K+] [Potassium chloride]
Solubility in water (%) [1]: 34.7%

O=P([O-])([O-])OP(=O)([O-])OP(=O)([O-])[O-].[Na+].[Na+].[Na+].[Na+].[Na+] [Triphosphate (Na)]
Solubility in water (%) [1]: 14.5%

CCC/C=C/CO [trans-2-hexenol]
Loss in the water phase [2]: 6,0% | Distribution in [%] between oil phase and water phase after condensation: Oil phase ([3]; NaCl 0%): 37.9% | Distribution in [%] between oil phase and water phase after condensation: Water phase ([3]; NaCl 0%): 62.1% | Distribution in [%] between oil phase and water phase after condensation: Oil phase ([3]; NaCl 27.8 %): 73.6% | Distribution in [%] between oil phase and water phase after condensation: Water phase ([3]; NaCl 27.8 %): 26.4% | Distribution in [%] between oil phase and water phase after condensation: Oil phase ([3]; NaCl 41.67%): 82.6% | Distribution in [%] between oil phase and water phase after condensation: Water phase ([3]; NaCl 41.67%): 17.4% | Distribution in [%] between oil phase and water phase after condensation: Oil phase ([3]; NaCl 55.56 %): 88.4% | Distribution in [%] between oil phase and water phase after condensation: Water phase ([3]; NaCl 55.56 %): 11.6% | Distribution in [%] between oil phase and water phase after condensation: Oil phase ([3]; NaCl 69.44 %): 91.7% | Distribution in [%] between oil phase and water phase after condensation: Water phase ([3]; NaCl 69.44 %): 8.3% | Distribution in [%] between oil phase and water phase after condensation: Oil phase ([3]; NaCl 83.33 %): 94% | Distribution in [%] between oil phase and water phase after condensation: Water phase ([3]; NaCl 83.33 %): 6%

CCC/C=C/COC(C)=O [trans-2-hexenyl acetate]
Loss in the water phase [2]: 0,0% | Distribution in [%] between oil phase and water phase after condensation: Oil phase ([3]; NaCl 0%): 100% | Distribution in [%] between oil phase and water phase after condensation: Water phase ([3]; NaCl 0%): 0% | Distribution in [%] between oil phase and water phase after condensation: Oil phase ([3]; NaCl 27.8 %): 97.2% | Distribution in [%] between oil phase and water phase after condensation: Water phase ([3]; NaCl 27.8 %): 2.8% | Distribution in [%] between oil phase and water phase after condensation: Oil phase ([3]; NaCl 41.67%): 100% | Distribution in [%] between oil phase and water phase after condensation: Water phase ([3]; NaCl 41.67%): 0% | Distribution in [%] between oil phase and water phase after condensation: Oil phase ([3]; NaCl 55.56 %): 100% | Distribution in [%] between oil phase and water phase after condensation: Water phase ([3]; NaCl 55.56 %): 0% | Distribution in [%] between oil phase and water phase after condensation: Oil phase ([3]; NaCl 69.44 %): 100% | Distribution in [%] between oil phase and water phase after condensation: Water phase ([3]; NaCl 69.44 %): 0% | Distribution in [%] between oil phase and water phase after condensation: Oil phase ([3]; NaCl 83.33 %): 100% | Distribution in [%] between oil phase and water phase after condensation: Water phase ([3]; NaCl 83.33 %): 0%

CC/C=C/CCO [trans-3-hexenol]
Loss in the water phase [2]: 2,7% | Distribution in [%] between oil phase and water phase after condensation: Oil phase ([3]; NaCl 0%): 51.8% | Distribution in [%] between oil phase and water phase after condensation: Water phase ([3]; NaCl 0%): 48.2% | Distribution in [%] between oil phase and water phase after condensation: Oil phase ([3]; NaCl 27.8 %): 84% | Distribution in [%] between oil phase and water phase after condensation: Water phase ([3]; NaCl 27.8 %): 16% | Distribution in [%] between oil phase and water phase after condensation: Oil phase ([3]; NaCl 41.67%): 90.5% | Distribution in [%] between oil phase and water phase after condensation: Water phase ([3]; NaCl 41.67%): 9.5% | Distribution in [%] between oil phase and water phase after condensation: Oil phase ([3]; NaCl 55.56 %): 93.6% | Distribution in [%] between oil phase and water phase after condensation: Water phase ([3]; NaCl 55.56 %): 6.4% | Distribution in [%] between oil phase and water phase after condensation: Oil phase ([3]; NaCl 69.44 %): 96.2% | Distribution in [%] between oil phase and water phase after condensation: Water phase ([3]; NaCl 69.44 %): 3.8% | Distribution in [%] between oil phase and water phase after condensation: Oil phase ([3]; NaCl 83.33 %): 97.3% | Distribution in [%] between oil phase and water phase after condensation: Water phase ([3]; NaCl 83.33 %): 2.7%
